Assay [1] concerns the target T1, Ubiquitin-conjugating enzyme E2 N (Homo sapiens, UniProt P61088).
T1 sequence (P61088 whole entry): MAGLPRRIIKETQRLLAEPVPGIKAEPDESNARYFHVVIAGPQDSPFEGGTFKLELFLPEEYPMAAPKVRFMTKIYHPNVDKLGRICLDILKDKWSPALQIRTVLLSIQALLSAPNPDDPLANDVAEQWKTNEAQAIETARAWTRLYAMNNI
The assay is classed as functional.

The target of a further assay is T2, Bcl-2-related protein A1 (Mus musculus, UniProt Q07440).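 Further: confirmatory dose–response counterscreen on Bfl-1, used to check hits from a UBC13 polyubiquitin inhibitor campaign.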
T2 sequence (Q07440 whole entry): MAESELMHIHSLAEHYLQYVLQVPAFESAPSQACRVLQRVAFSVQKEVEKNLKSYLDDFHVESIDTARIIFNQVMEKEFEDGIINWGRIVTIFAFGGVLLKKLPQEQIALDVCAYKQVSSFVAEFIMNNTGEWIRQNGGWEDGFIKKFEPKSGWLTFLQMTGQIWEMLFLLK
The assay is classed as functional.

For assay [2], the target named is T1, Ubiquitin-conjugating enzyme E2 N. It counts as functional. This is another data set of the same source.
Assay [3] deals with T3, Type-1 angiotensin II receptor (Homo sapiens, UniProt P30556).
T3 sequence (P30556 whole entry): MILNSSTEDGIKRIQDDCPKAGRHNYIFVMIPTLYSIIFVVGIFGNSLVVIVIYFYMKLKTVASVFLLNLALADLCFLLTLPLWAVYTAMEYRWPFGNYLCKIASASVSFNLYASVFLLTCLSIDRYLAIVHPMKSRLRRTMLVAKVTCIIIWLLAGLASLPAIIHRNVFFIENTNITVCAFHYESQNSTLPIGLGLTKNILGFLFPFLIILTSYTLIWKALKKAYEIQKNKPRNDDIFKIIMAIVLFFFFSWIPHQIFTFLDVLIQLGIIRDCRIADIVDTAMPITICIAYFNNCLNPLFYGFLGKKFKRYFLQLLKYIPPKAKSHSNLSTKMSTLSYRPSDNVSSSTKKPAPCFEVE
In words: AT1 receptor agonists, dose response, selectivity assay for APJ receptor agonist project, cell-based, uHTS hits (AID 488865).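 Further: beta-arrestin recruitment to AT1 measured by enzyme fragment complementation luminescence.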 The assay is classed as functional.

The target in assay [4] is T4, DNA repair protein RAD52 homolog (Homo sapiens, UniProt P43351).
T4 sequence (P43351 whole entry): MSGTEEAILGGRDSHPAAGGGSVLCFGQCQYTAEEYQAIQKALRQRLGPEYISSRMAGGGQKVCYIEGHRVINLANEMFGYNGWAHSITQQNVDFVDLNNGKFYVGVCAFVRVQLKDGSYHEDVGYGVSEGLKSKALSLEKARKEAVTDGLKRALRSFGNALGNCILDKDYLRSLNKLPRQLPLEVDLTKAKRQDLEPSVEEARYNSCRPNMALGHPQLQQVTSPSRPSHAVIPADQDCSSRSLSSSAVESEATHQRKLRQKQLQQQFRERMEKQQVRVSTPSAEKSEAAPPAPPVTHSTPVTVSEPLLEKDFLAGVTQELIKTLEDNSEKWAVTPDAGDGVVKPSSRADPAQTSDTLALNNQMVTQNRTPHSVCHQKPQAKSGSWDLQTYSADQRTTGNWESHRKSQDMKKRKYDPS
It counts as functional, biochemical.

The target in assay [5] is T5, Probable nicotinate-nucleotide adenylyltransferase (Staphylococcus aureus (strain N315), UniProt P65502). The assay is classed as functional, Staphylococcus aureus subsp. aureus N315. Conditions: read-out: IC50_Mean.
Assay [6] has as its target T6, G-protein coupled receptor 35 (Homo sapiens, UniProt Q9HC97). In words: SAR analysis of Agonists of the GPR35 Receptor using an Image-Based Assay - Set 4. [Related pubchem assays (depositor defined):AID2013, AID2026]. The assay is classed as functional.
For assay [7], the target named is T5, Probable nicotinate-nucleotide adenylyltransferase. The assay is classed as functional, Staphylococcus aureus subsp. aureus N315.
In assay [8] the target is T7, Cannabinoid receptor 2 (Homo sapiens, UniProt P34972). In words: SAR analysis of agonists of the Cannabinoid Receptor 2 using an Image-Based Assay - Set 3. [Related pubchem assays (depositor defined):AID2013, AID2026]. It counts as functional.
Assay [9] deals with T6, G-protein coupled receptor 35. In words: SAR analysis of Antagonists of the GPR35 Receptor using an Image-Based Assay - Set 6. [Related pubchem assays (depositor defined):AID2013, AID2026]. It counts as functional.
The target in assay [10] is T8, Cannabinoid receptor 1 (Homo sapiens, UniProt P21554). Briefly: SAR analysis of agonists of the Cannabinoid Receptor 1 using an Image-Based Assay - Set 4. [Related pubchem assays (depositor defined):AID2013, AID2026]. The assay is classed as functional.
Assay [11] addresses T8, Cannabinoid receptor 1. In words: SAR analysis of antagonists of the Cannabinoid Receptor 1 using an Image-Based Assay - Set 4. [Related pubchem assays (depositor defined):AID2013, AID2026]. The assay is classed as functional.
The target of assay [12] is T7, Cannabinoid receptor 2. In words: SAR analysis of antagonists of the Cannabinoid Receptor 2 using an Image-Based Assay - Set 3. [Related pubchem assays (depositor defined):AID2013, AID2026]. It counts as functional.
The target of assay [13] is G-protein coupled receptor 55 (Homo sapiens, UniProt Q9Y2T6). In words: SAR Analysis of Selective Antagonists of GPR55 using an Image-Based Assay - Set 4. [Related pubchem assays (depositor defined):AID2013, AID2026]. The assay is classed as functional.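 Further: antagonism of response to 5 µM lysophosphatidylinositol agonist.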
Assay [14] concerns BJ. Briefly: cytotoxicity toward BJ-TERT fibroblasts, dose response, cell-based, RAS-independent, luminescence (AID 1933). It counts as functional. Conditions: Homo sapiens.
Assay [15] concerns BJ. Briefly: cells. The assay is classed as functional, cell-based. Conditions: Homo sapiens.
The subject of assay [16] is BJ. In words: cytotoxicity toward BJ-TERT-LT-ST fibroblasts, dose response, cell-based, RAS-independent, luminescence (AID 1935).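 Further: BJ fibroblasts immortalized with TERT plus LT and ST oncogenes.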 The assay is classed as functional. Conditions: Homo sapiens.
The nature of assay [17]: cytotoxicity toward NIH3T3 fibroblasts, dose response, counter-screen, cell-based, ATP luminescence, mouse fibroblasts (AID 2010).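 Further: cells exposed to compound for about 90 hours before reading.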 It counts as functional. (Counterscreens check selectivity or assay interference.)
The nature of assay [18]: inhibitors of intracellular T. cruzi replication, confirmation, NIH3T3 host cells, beta-gal luminescence (AID 2044).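 Further: intracellular parasites grown in NIH/3T3 mouse fibroblasts as host cells; luminescent beta-galactosidase reporter signal from transgenic T. cruzi replicating inside host cells; inhibitors lower the luminescence signal.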 It counts as functional, cell-based.
In another assay the target is T9, Mucolipin-3 (Homo sapiens, UniProt Q8TDD5).
T9 sequence (Q8TDD5 whole entry): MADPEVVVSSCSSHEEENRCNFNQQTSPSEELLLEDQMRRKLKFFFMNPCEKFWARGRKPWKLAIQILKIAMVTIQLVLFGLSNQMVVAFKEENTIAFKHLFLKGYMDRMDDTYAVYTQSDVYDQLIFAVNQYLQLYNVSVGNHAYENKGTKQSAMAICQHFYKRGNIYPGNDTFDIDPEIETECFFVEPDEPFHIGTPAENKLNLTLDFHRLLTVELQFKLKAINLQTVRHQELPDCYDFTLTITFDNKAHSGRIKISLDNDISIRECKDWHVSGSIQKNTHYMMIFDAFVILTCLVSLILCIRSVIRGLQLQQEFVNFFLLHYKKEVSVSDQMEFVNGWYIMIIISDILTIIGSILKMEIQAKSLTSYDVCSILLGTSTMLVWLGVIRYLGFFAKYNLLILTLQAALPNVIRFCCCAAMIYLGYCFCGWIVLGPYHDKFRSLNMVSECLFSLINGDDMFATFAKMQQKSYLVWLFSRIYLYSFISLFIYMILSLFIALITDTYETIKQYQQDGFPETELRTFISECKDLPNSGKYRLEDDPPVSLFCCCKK
In words: Fluorescence counterscreen assay for […] agonists: dose response cell-based high-throughput screening assay to identify agonists of the transient receptor potential channel ML3 (TRPML3). [Related pubchem assays: 1424, 1448 ]. It counts as functional.

The nature of assay [19]: cytotoxicity toward DRD oncogenic fibroblasts, dose response, cell-based, non-viral oncogenic, luminescence (AID 1934). It counts as functional. The conditions noted are these: Homo sapiens.
Assay [20] in a line: microbe, parasite or virus in culture. The assay is classed as functional. Conditions: Mycobacterium tuberculosis.
The next assay has as its target Ion channel NompC (Danio rerio, UniProt Q7T1G6). In words: Dose response cell-based high-throughput screening assay for agonists of the transient receptor potential channel N1 (TRPN1). [Related pubchem assays (depositor defined):AID1424, AID1448]. The assay is classed as functional.

Calls of active or inactive are those of the source. A value given as a limit tells only on which side of the number the result lay.
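Wherever IC50 Mean is given: confirmatory dose-response retesting of NadD inhibitor hits first found in an ultra-high-throughput screen.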

T7 sequence (P34972 whole entry): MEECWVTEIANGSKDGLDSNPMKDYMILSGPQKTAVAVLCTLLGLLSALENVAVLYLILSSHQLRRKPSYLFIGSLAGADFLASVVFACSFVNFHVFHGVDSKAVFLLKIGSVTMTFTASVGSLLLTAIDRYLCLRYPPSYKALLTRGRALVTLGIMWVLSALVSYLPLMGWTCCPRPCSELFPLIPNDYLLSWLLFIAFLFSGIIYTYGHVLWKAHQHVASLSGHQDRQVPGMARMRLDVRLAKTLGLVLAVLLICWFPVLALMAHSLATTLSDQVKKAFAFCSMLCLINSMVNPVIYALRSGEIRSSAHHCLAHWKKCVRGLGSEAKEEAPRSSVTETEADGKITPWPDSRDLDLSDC
T8 sequence (P21554 whole entry): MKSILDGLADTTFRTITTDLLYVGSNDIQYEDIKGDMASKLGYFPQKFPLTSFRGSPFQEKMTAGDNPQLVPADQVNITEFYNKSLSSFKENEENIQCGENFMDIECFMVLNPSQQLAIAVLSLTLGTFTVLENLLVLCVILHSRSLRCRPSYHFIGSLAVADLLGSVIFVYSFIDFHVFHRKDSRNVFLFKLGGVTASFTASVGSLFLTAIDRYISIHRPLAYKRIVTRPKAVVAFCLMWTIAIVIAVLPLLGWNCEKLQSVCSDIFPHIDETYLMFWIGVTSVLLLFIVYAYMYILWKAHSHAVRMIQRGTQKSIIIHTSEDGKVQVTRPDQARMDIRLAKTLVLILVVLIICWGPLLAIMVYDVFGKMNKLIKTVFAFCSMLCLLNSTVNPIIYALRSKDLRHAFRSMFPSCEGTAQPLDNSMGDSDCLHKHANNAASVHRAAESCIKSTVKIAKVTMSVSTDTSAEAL
T6 sequence (Q9HC97 whole entry): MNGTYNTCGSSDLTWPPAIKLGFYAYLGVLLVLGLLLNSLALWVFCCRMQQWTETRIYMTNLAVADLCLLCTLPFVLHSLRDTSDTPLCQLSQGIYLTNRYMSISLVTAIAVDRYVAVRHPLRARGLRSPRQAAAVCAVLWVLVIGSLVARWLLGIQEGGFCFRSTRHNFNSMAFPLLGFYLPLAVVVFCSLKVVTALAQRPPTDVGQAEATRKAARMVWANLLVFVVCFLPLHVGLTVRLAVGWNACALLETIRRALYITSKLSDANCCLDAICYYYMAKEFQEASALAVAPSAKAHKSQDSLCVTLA
T5 sequence (P65502 whole entry): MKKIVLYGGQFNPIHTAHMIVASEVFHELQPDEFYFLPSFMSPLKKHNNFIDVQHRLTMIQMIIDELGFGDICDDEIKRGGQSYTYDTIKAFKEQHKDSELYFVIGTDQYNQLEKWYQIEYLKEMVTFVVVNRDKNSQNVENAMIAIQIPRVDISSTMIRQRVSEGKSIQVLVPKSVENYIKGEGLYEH
Chain of G-protein coupled receptor 55 (Q9Y2T6 whole entry): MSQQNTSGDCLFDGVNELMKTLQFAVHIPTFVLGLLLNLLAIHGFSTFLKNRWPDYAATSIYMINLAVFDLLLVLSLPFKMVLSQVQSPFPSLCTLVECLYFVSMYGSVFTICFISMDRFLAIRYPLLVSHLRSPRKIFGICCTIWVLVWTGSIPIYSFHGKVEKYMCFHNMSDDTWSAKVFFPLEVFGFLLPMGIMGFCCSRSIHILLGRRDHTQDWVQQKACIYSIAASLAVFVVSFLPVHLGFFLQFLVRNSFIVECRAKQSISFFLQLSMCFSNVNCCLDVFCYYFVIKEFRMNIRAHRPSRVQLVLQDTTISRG
Chain of Ion channel NompC (Q7T1G6 whole entry): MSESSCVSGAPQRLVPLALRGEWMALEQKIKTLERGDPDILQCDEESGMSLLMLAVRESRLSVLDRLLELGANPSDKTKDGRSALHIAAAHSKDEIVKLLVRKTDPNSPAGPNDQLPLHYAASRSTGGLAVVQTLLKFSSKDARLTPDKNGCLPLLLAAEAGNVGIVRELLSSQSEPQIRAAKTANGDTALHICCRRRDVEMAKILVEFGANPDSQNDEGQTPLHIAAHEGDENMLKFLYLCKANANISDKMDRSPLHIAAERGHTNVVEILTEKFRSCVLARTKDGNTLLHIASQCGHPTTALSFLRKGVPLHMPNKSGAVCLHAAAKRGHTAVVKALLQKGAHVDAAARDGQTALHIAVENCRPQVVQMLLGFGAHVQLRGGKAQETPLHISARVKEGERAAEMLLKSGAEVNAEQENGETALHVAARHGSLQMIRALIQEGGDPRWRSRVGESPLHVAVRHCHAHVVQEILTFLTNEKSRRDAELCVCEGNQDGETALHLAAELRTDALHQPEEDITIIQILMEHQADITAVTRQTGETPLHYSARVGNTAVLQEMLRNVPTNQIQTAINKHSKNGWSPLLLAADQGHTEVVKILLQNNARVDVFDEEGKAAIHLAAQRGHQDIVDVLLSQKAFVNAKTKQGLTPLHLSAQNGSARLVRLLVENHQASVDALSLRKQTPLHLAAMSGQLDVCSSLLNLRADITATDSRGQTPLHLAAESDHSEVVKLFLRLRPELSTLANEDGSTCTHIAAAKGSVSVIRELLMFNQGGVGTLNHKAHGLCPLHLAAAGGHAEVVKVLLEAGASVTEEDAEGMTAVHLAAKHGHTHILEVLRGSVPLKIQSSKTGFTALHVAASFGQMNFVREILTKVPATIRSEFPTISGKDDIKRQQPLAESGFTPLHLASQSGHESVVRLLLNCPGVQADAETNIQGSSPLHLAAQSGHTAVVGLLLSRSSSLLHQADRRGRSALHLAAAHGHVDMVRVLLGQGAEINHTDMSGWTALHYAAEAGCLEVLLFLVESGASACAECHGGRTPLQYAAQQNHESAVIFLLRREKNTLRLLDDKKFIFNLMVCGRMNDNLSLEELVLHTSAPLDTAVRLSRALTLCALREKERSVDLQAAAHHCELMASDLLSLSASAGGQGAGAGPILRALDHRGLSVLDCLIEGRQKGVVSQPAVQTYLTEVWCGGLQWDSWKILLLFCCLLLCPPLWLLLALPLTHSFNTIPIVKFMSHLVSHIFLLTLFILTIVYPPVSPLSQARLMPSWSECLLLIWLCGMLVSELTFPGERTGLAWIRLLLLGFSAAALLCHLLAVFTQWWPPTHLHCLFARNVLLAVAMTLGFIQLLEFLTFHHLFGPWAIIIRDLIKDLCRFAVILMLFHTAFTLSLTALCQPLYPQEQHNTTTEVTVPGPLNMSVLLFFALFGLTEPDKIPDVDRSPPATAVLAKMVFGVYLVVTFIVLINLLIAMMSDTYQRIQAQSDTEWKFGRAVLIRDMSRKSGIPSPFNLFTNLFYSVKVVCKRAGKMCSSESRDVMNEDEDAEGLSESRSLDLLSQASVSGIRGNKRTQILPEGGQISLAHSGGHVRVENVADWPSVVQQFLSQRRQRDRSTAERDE

What is called EC50 is the midpoint of the concentration-response curve. Broadly, the AC50 is the midpoint of the concentration-response curve, whichever way the signal moves. With `CCOc1cccc2sc(N(CCCN(C)C)C(=O)c3ccc(S(=O)(=O)N4CCc5ccccc5C4)cc3)nc12`, the IC50 was 8.33 µM (active) in assay [1], > 20 µM (inactive) on Bcl-2-related protein A1 and 7.45 µM (active) in assay [2]. Moreover, the EC50 in assay [3] was > 100 µM (inactive). Further, the AC50 in [4] was 21.2 µM (active).

For `O=C(Nc1ccc(S(=O)(=O)Nc2nccs2)cc1)c1cc(-c2ccccc2)nc2ccccc12`, the IC50 in [5] is 20 µM (active); in [7], 6.12 µM (active); in assay [9] it was > 32 µM (inactive); at Cannabinoid receptor 1 [11] it was 4.77 µM (active); at Cannabinoid receptor 2 [12], > 32 µM (inactive); in assay [13], 5.75 µM (active). The EC50 (in assay [6]; at Cannabinoid receptor 2 [8]; on Cannabinoid receptor 1 [10]) was > 32 µM (inactive) in each case.

Consider `CCN(CC)c1ccc(/C=C2\SC(=O)N(C(C)C)C2=O)o1`, for which the EC50 in the assay on BJ [14] is 11.7 µM (active); with BJ [15], 20.5 µM (active); in the assay with BJ [16], > 75 µM (inconclusive); in assay [17] it was 18.4 µM (active); in assay [18] it was 2.09 µM (active); on Mucolipin-3, > 9.97 µM (not active). The EC50 in assay [19] is 35.7 µM (active); on Ion channel NompC, > 9.97 µM (inactive). In [20], the CC50 is 38.7 µM (active).

Turning to `N=c1c(C(=O)NCCN2CCOCC2)cc2c(=O)n3ccccc3nc2n1C1CCCC1`, the EC50 in assay [6] is > 32 µM (inactive); at Cannabinoid receptor 2 [8], 8.59 µM (active); on Cannabinoid receptor 1 [10], > 32 µM (inactive). The IC50 (in assay [9]; on Cannabinoid receptor 1 [11]; at Cannabinoid receptor 2 [12]; in assay [13]) was > 32 µM (inactive) throughout.

These data come from ChEMBL document CHEMBL1201862, “PubChem BioAssay data set” (2004).
